Measured values taken from US10882860B2, “Treatment of osteoarthritis” (Samumed, LLC, priority 2015, dated 2021).
Like-named read-outs stand apart in the source and are kept apart here.

Test: Rat pharmacokinetics after IA injection (plasma, knee joint)
Type: in vivo, Sprague Dawley rats
Conditions: for concentration at 30 day / concentration at 90 day / concentration at 180 day: Sprague Dawley; for concentration at 30 day / concentration at 90 day / concentration at 180 day / Formula (I) concentration, Bone / Formula (I) concentration, Cartilage / Formula (I) concentration, Plasma: rats, single IA; for Formula (I) concentration, Plasma: QL = 5 ng/mL
Protocol: In rats and dogs, the pharmacokinetic profile, safety profile, tissue distribution and cartilage regeneration following a single intra-articular (IA) injection of the compound of Formula (I) in the plasma and the knee joint (cartilage and bone) was determined. The compound of Formula (I) (Form 1) was formulated as a suspension composition in 0.5% CMC/0.05% Polysorbate 80 in PBS.
The pharmacokinetics of the compound of Formula (I) in rats was studied. Three Sprague Dawley rats were each injected with a single intra-articular (IA) injection (one IA injection per knee) of a suspension composition of the compound of Formula (I) (Form 1) at 0.3, 1, 3 and 9 μg/knee. Plasma was collected beginning at 15 minutes post-dose on Day 1 and the knee joint was collected at Days 30, 90, and 180 post-IA administration. The bone and cartilage tissues from the knee joint were segregated and concentrations analyzed. The compound was retained in the knee joint above the target concentration level (˜30 nM, the intended clinical therapeutic dose) for greater than 180 days and was undetectable in the plasma at all time points.

## CC(C)CC(=O)Nc1cncc(-c2ccc3[nH]nc(-c4nc5c(-c6cccc(F)c6)cncc5[nH]4)c3c2)c1 [compound of Formula (I)]
rat, bone, other: intra-articular injection, 1 μg/knee, Day 30, read-out: Formula (I) concentration, Bone
  concentration at 30 day: 196 ng/g
rat, bone, other: intra-articular injection, 1 μg/knee, Day 90, read-out: Formula (I) concentration, Bone
  concentration at 90 day: 44.4 ng/g
rat, bone, other: intra-articular injection, 1 μg/knee, Day 180, read-out: Formula (I) concentration, Bone
  concentration at 180 day: 46.4 ng/g
rat, bone, other: intra-articular injection, 3 μg/knee, Day 30, read-out: Formula (I) concentration, Bone
  concentration at 30 day: 738 ng/g
rat, bone, other: intra-articular injection, 3 μg/knee, Day 90, read-out: Formula (I) concentration, Bone
  concentration at 90 day: 166 ng/g
rat, bone, other: intra-articular injection, 3 μg/knee, Day 180, read-out: Formula (I) concentration, Bone
  concentration at 180 day: 15 ng/g
rat, bone, other: intra-articular injection, 9 μg/knee, Day 30, read-out: Formula (I) concentration, Bone
  concentration at 30 day: 3290 ng/g
rat, bone, other: intra-articular injection, 9 μg/knee, Day 180, read-out: Formula (I) concentration, Bone
  concentration at 180 day: 67 ng/g
rat, bone, other: intra-articular, 0.3 μg/knee, Day 30, read-out: Formula (I) concentration, Bone
  concentration at 30 day: 25.8 ng/g
rat, bone, other: intra-articular, 0.3 μg/knee, Day 90, read-out: Formula (I) concentration, Bone
  concentration at 90 day: 6.56 ng/g
rat, bone, other: intra-articular, 0.3 μg/knee, Day 180, read-out: Formula (I) concentration, Bone
  concentration at 180 day: 19 ng/g
rat, cartilage, other: intra-articular injection, 0.3 μg/knee, Day 30, read-out: Formula (I) concentration, Cartilage
  concentration at 30 day: 263 ng/g
rat, cartilage, other: intra-articular injection, 0.3 μg/knee, Day 90, read-out: Formula (I) concentration, Cartilage
  concentration at 90 day: 78 ng/g
rat, cartilage, other: intra-articular injection, 0.3 μg/knee, Day 180, read-out: Formula (I) concentration, Cartilage
  concentration at 180 day: 69.6 ng/g
rat, cartilage, other: intra-articular injection, 3 μg/knee, Day 30, read-out: Formula (I) concentration, Cartilage
  concentration at 30 day: 2570 ng/g
rat, cartilage, other: intra-articular injection, 3 μg/knee, Day 90, read-out: Formula (I) concentration, Cartilage
  concentration at 90 day: 645 ng/g
rat, cartilage, other: intra-articular injection, 3 μg/knee, Day 180, read-out: Formula (I) concentration, Cartilage
  concentration at 180 day: 717 ng/g
rat, cartilage, other: intra-articular injection, 9 μg/knee, Day 30, read-out: Formula (I) concentration, Cartilage
  concentration at 30 day: 3560 ng/g
rat, cartilage, other: intra-articular injection, 9 μg/knee, Day 180, read-out: Formula (I) concentration, Cartilage
  concentration at 180 day: 224 ng/g
rat, cartilage, other: intra-articular, 1 μg/knee, Day 30, read-out: Formula (I) concentration, Cartilage
  concentration at 30 day: 39 ng/g
rat, cartilage, other: intra-articular, 1 μg/knee, Day 90, read-out: Formula (I) concentration, Cartilage
  concentration at 90 day: 243 ng/g
rat, cartilage, other: intra-articular, 1 μg/knee, Day 180, read-out: Formula (I) concentration, Cartilage
  concentration at 180 day: 201 ng/g
rat, all time points
  plasma level: undetectable
rat, single IA 0.3, 1, 3 and 9 μg/knee
  time retained in the knee joint above the target concentration level (˜30 nM): greater than 180 days
0.3 μg/knee, Day 30
  Formula (I) concentration, Bone: [51 nM]
  Formula (I) concentration, Cartilage: [521 nM]
  Formula (I) concentration, Plasma: BQL
0.3 μg/knee, Day 90
  Formula (I) concentration, Bone: [13 nM]
  Formula (I) concentration, Cartilage: [154 nM]
  Formula (I) concentration, Plasma: BQL
0.3 μg/knee, Day 180
  Formula (I) concentration, Bone: [38 nM]
  Formula (I) concentration, Cartilage: [138 nM]
  Formula (I) concentration, Plasma: BQL
1 μg/knee, Day 30
  Formula (I) concentration, Bone: [388 nM]
  Formula (I) concentration, Cartilage: [774 nM]
  Formula (I) concentration, Plasma: BQL
1 μg/knee, Day 90
  Formula (I) concentration, Bone: [88 nM]
  Formula (I) concentration, Cartilage: [481 nM]
  Formula (I) concentration, Plasma: BQL
1 μg/knee, Day 180
  Formula (I) concentration, Bone: [92 nM]
  Formula (I) concentration, Cartilage: [398 nM]
  Formula (I) concentration, Plasma: BQL
3 μg/knee, Day 30
  Formula (I) concentration, Bone: [1461 nM]
  Formula (I) concentration, Cartilage: [5097 nM]
  Formula (I) concentration, Plasma: BQL
3 μg/knee, Day 90
  Formula (I) concentration, Bone: [329 nM]
  Formula (I) concentration, Cartilage: [1277 nM]
  Formula (I) concentration, Plasma: BQL
3 μg/knee, Day 180
  Formula (I) concentration, Bone: [313 nM]
  Formula (I) concentration, Cartilage: [1420 nM]
  Formula (I) concentration, Plasma: BQL
9 μg/knee, Day 30
  Formula (I) concentration, Bone: [6520 nM]
  Formula (I) concentration, Cartilage: [7055 nM]
  Formula (I) concentration, Plasma: BQL
9 μg/knee, Day 90
  Formula (I) concentration, Plasma: BQL
9 μg/knee, Day 180
  Formula (I) concentration, Bone: [1335 nM]
  Formula (I) concentration, Cartilage: [4437 nM]
  Formula (I) concentration, Plasma: BQL
